Consider 29 compounds from US9387204B2, “Fused bicyclic imidazoles” (BAYER INTELLECTUAL PROPERTY GmbH, priority 2007, dated 2016).

SMILES strings stand for the structures.

The first data set deals with A549 cells. The data set can be described thus: Cellular proliferation/cytotoxicity assay (Alamar Blue), A549 cells. To be noted: Homo sapiens, A549, 72 h, read-out: Anti-proliferative/Cytotoxic activity (A549 cells).
With `c1ccc(-c2nc(C3CCN(Cc4ccc(-c5nc6ncccn6c5-c5cccs5)cc4)CC3)n[nH]2)nc1` [Example 35, 2-(4-{[4-(5-pyridin-2-yl-1,2,4-triazol-3-yl)piperidin-1-yl]methyl}phenyl)-3-(2-thienyl)imidazo[1,2-a]pyrimidine], the IC50 was over 10 µM.

Turning to `Clc1cnc2nc(-c3ccc(CN4CCC(c5n[nH]c(-c6ccccn6)n5)CC4)cc3)c(-c3ccccc3)n2c1` [Example 21, 6-chloro-3-phenyl-2-(4-{[4-(5-pyridin-2-yl-1,2,4-triazol-3-yl)piperidin-1-yl]methyl}phenyl)imidazo[1,2-a]pyrimidine], the IC50 is under 10 µM. On the same count and under the same terms, the same measure for `c1ccc(-c2c(-c3ccc(CN4CCC(c5n[nH]c(-c6ccccn6)n5)CC4)cc3)nc3ccccn23)cc1` [Example 2, 3-phenyl-2-(4-{[4-(5-pyridin-2-yl-1H-1,2,4-triazol-3-yl)piperidin-1-yl]methyl}phenyl)imidazo[1,2-a]pyridine]: under 10 µM; for `c1ccc(-c2c(-c3ccc(CN4CCC(c5nc(-c6cnccn6)no5)CC4)cc3)nc3ncccn23)cc1` [Example 4, 3-phenyl-2-(4-{[4-(3-pyrazin-2-yl-1,2,4-oxadiazol-5-yl)piperidin-1-yl]methyl}phenyl)imidazo[1,2-a]pyrimidine]: over 10 µM. Turning to `Clc1ccn2c(-c3ccccc3)c(-c3ccc(CN4CCC(c5nnc(-c6ccccc6)[nH]5)CC4)cc3)nc2c1` [Example 120, 7-chloro-3-phenyl-2-(4-{[4-(5-phenyl-4H-1,2,4-triazol-3-yl)piperidin-1-yl]methyl}phenyl)imidazo[1,2-a]pyridine], the IC50 is under 10 µM. In the case of `COC(O)c1cn2c(-c3ccccc3)c(-c3ccc(CN4CCC(c5n[nH]c(-c6ccccn6)n5)CC4)cc3)nc2s1` (centres unmarked) [Example 126, methoxy[5-phenyl-6-(4-{[4-(5-pyridin-2-yl-1H-1,2,4-triazol-3-yl)piperidin-1-yl]methyl}phenyl)imidazo[2,1-b][1,3]thiazol-2-yl]methanol], the IC50 is under 10 µM. On the same count and under the same terms, the same measure for `c1ccc(-c2nc(C3CCN(Cc4ccc(-c5nc6ncccn6c5-c5ccncc5)cc4)CC3)n[nH]2)nc1` [Example 36, 3-pyridin-4-yl-2-(4-{[4-(5-pyridin-2-yl-1,2,4-triazol-3-yl)piperidin-1-yl]methyl}phenyl)imidazo[1,2-a]pyrimidine]: over 10 µM; for `c1ccc(-c2c(-c3ccc(CN4CCC(c5n[nH]c(-c6ccccn6)n5)CC4)cc3)nc3scnn23)cc1` [Example 11, 5-phenyl-6-(4-{[4-(5-pyridin-2-yl-1,2,4-triazol-3-yl)piperidin-1-yl]methyl}phenyl)imidazo[2,1-b][1,3,4]thiadiazole]: under 10 µM; for `Cc1cccn2c(-c3ccccc3)c(-c3ccc(CN4CCC(c5n[nH]c(-c6ccccn6)n5)CC4)cc3)nc12` [Example 8, 8-methyl-3-phenyl-2-(4-{[4-(5-pyridin-2-yl-1,2,4-triazol-3-yl)piperidin-1-yl]methyl}phenyl)imidazo[1,2-a]pyridine]: under 10 µM.

`Cc1nn2c(-c3ccccc3)c(-c3ccc(CN4CCC(c5nnc(-c6ccccn6)[nH]5)CC4)cc3)nc2s1` [Example 45, 2-methyl-5-phenyl-6-[4-({4-[5-(pyridin-2-yl)-4H-1,2,4-triazol-3-yl]piperidin-1-yl}methyl)phenyl]imidazo[2,1-b][1,3,4]thiadiazole]: the IC50 is over 10 µM.

Regarding `FC(F)(F)c1nn2c(-c3ccccc3)c(-c3ccc(CN4CCC(c5nnc(-c6ccccn6)[nH]5)CC4)cc3)nc2s1` [Example 48, 5-phenyl-6-[4-({4-[5-(pyridin-2-yl)-4H-1,2,4-triazol-3-yl]piperidin-1-yl}methyl)phenyl]-2-(trifluoromethyl)imidazo[2,1-b][1,3,4]thiadiazole], the IC50 was over 10 µM. Regarding `c1ccc(-c2c(-c3ccc(CN4CCC(c5n[nH]c(-c6ccccn6)n5)CC4)cc3)nc3cnccn23)cc1` [Example 37, 3-phenyl-2-(4-{[4-(5-pyridin-2-yl-1,2,4-triazol-3-yl)piperidin-1-yl]methyl}phenyl)imidazo[1,2-a]pyrazine], the IC50 is over 10 µM. Same read-out and setting: for `Fc1ccc(-c2c(-c3ccc(CN4CCC(c5n[nH]c(-c6ccccn6)n5)CC4)cc3)nc3ncccn23)cc1` [Example 18, 3-(4-fluorophenyl)-2-(4-{[4-(5-pyridin-2-yl-1,2,4-triazol-3-yl)piperidin-1-yl]methyl}phenyl)imidazo[1,2-a]pyrimidine] the value was over 10 µM; for `Fc1ccc(-c2c(-c3ccc(CN4CCC(c5n[nH]c(-c6ccccn6)n5)CC4)cc3)nc3ccccn23)cc1` [Example 9, 3-(4-fluorophenyl)-2-(4-{[4-(5-pyridin-2-yl-1,2,4-triazol-3-yl)piperidin-1-yl]methyl}phenyl)imidazo[1,2-a]pyridine], under 10 µM; for `FC(F)(F)c1ccn2c(-c3ccccc3)c(-c3ccc(CN4CCC(c5n[nH]c(-c6ccccn6)n5)CC4)cc3)nc2n1` [Example 28, 3-phenyl-2-(4-{[4-(5-pyridin-2-yl-1,2,4-triazol-3-yl)piperidin-1-yl]methyl}phenyl)-7-(trifluoromethyl)imidazo[1,2-a]pyrimidine], over 10 µM. On the same count and under the same terms, for `Cc1cccc(-c2nnc(C3CCN(Cc4ccc(-c5nc6ccccn6c5-c5ccccc5)cc4)CC3)[nH]2)n1` [Example 64, 2-[4-({4-[5-(6-methylpyridin-2-yl)-4H-1,2,4-triazol-3-yl]piperidin-1-yl}methyl)phenyl]-3-phenylimidazo[1,2-a]pyridine] the value was under 10 µM; for `Clc1nccn2c(-c3ccccc3)c(-c3ccc(CN4CCC(c5n[nH]c(-c6ccccn6)n5)CC4)cc3)nc12` [Example 26, 8-chloro-3-phenyl-2-(4-{[4-(5-pyridin-2-yl-1,2,4-triazol-3-yl)piperidin-1-yl]methyl}phenyl)imidazo[1,2-a]pyrazine], over 10 µM. On the same count and under the same terms, the same measure for `Clc1ccn2c(-c3ccccc3)c(-c3ccc(CN4CCC(c5nnc(-c6ccccn6)[nH]5)CC4)cc3)nc2c1` [Example 54, 7-chloro-3-phenyl-2-(4-{[4-(5-pyridin-2-yl-4H-1,2,4-triazol-3-yl)piperidin-1-yl]methyl}phenyl)imidazo[1,2-a]pyridine]: under 10 µM. As for `COc1ccc(-c2c(-c3ccc(CN4CCC(c5n[nH]c(-c6ccccn6)n5)CC4)cc3)nc3ccccn23)cc1` [Example 15, 3-(4-methoxyphenyl)-2-(4-{[4-(5-pyridin-2-yl-1,2,4-triazol-3-yl)piperidin-1-yl]methyl}phenyl)imidazo[1,2-a]pyridine], the IC50 was under 10 µM.

Still in this data set, the particulars now being: read-out: Anti-proliferative/Cytotoxic activity (A549 cells); A549 cells, 72 h, Alamar Blue (Resazurin).
On to `c1ccc(-c2c(-c3ccc(CN4CCC(c5cc(-c6ccccn6)[nH]n5)CC4)cc3)nc3scnn23)cc1` [Example 112, ′5-phenyl-6-(4-{[4-(5-pyridin-2-yl-1H-pyrazol-3-yl)piperidin-1-yl]methyl}phenyl)imidazo[2,1-b][1,3,4]thiadiazole], for which the IC50 is under 10 µM. The same measure, in the same setting: for `O=C(O)c1cn2c(-c3ccccc3)c(-c3ccc(CN4CCC(c5nnc(-c6ccccn6)[nH]5)CC4)cc3)nc2s1` [Example 127, ′5-phenyl-6-(4-{[4-(5-pyridin-2-yl-4H-1,2,4-triazol-3-yl)piperidin-1-yl]methyl}phenyl)imidazo[2,1-b][1,3]thiazole-2-carboxylic acid] the value was over 10 µM; for `N#Cc1cccn2c(-c3ccccc3)c(-c3ccc(CN4CCC(c5nnc(-c6nccs6)[nH]5)CC4)cc3)nc12` [Example 86, ′3-phenyl-2-[4-({4-[5-(1,3-thiazol-2-yl)-4H-1,2,4-triazol-3-yl]piperidin-1-yl}methyl)phenyl]imidazo[1,2-a]pyridine-8-carbonitrile], over 10 µM. Turning to `N#Cc1ccn2c(-c3ccccc3)c(-c3ccc(CN4CCC(c5nc(-c6ccncc6)n[nH]5)CC4)cc3)nc2c1` [Example 57, ′3-phenyl-2-(4-{[4-(3-pyridin-4-yl-1H-1,2,4-triazol-5-yl)piperidin-1-yl]methyl}phenyl)imidazo[1,2-a]pyridine-7-carbonitrile], the IC50 was under 10 µM.

For `Cc1ccc(-c2nnc(C3CCN(Cc4ccc(-c5nc6ncccn6c5-c5ccccc5)cc4)CC3)[nH]2)nc1` [Example 70, ′2-[4-({4-[5-(5-methylpyridin-2-yl)-4H-1,2,4-triazol-3-yl]piperidin-1-yl}methyl)phenyl]-3-phenylimidazo[1,2-a]pyrimidine], the IC50 is under 10 µM. On to `c1ccc(-c2c(-c3ccc(CN4CCC(c5nnc(-c6nccs6)[nH]5)CC4)cc3)nc3sccn23)cc1` [Example 87, ′5-phenyl-6-[4-({4-[5-(1,3-thiazol-2-yl)-4H-1,2,4-triazol-3-yl]piperidin-1-yl}methyl)phenyl]imidazo[2,1-b][1,3]thiazole], for which the IC50 was under 10 µM.

With `N#Cc1ccn2c(-c3ccccc3)c(-c3ccc(CN4CCC(c5nnc(-c6ccccn6)[nH]5)CC4)cc3)nc2c1` [Example 114, ′3-phenyl-2-(4-{[4-(5-pyridin-2-yl-4H-1,2,4-triazol-3-yl)piperidin-1-yl]methyl}phenyl)imidazo[1,2-a]pyridine-7-carbonitrile], the IC50 is under 10 µM.

As for `Cc1cccc(-c2nnc(C3CCN(Cc4ccc(-c5nc6scnn6c5-c5ccccc5)cc4)CC3)[nH]2)n1` [Example 67, ′6-[4-({4-[5-(6-methylpyridin-2-yl)-4H-1,2,4-triazol-3-yl]piperidin-1-yl}methyl)phenyl]-5-phenylimidazo[2,1-b][1,3,4]thiadiazole], the IC50 is under 10 µM. Same read-out and setting: for `Cc1ccc2nc(-c3ccc(CN4CCC(c5nnc(-c6ccc[nH]6)[nH]5)CC4)cc3)c(-c3ccccc3)n2n1` [Example 104, ′6-methyl-3-phenyl-2-[4-({4-[5-(1H-pyrrol-2-yl)-4H-1,2,4-triazol-3-yl]piperidin-1-yl}methyl)phenyl]imidazo[1,2-b]pyridazine] the value was under 10 µM; for `Clc1ccc(-c2nnc(C3CCN(Cc4ccc(-c5nc6ncccn6c5-c5ccccc5)cc4)CC3)[nH]2)nc1` [Example 76, ′2-[4-({4-[5-(5-chloropyridin-2-yl)-4H-1,2,4-triazol-3-yl]piperidin-1-yl}methyl)phenyl]-3-phenylimidazo[1,2-a]pyrimidine], under 10 µM.
